# Experimental data as given in US12458688B2, “Epitopes” (Scancell Limited, priority 2018, dated 2025).
# Assays:
# HLA-HHDII/DP4 mice = experiment: Ex vivo IFNγ ELISpot after peptide immunisation, HHDII/DP4 mice; format: in vivo, mouse; settings: for IFNγ ELISpot response: 3 immunisations with CpG/MPLA, day 21
# Method: (§1) C57BL/6 mice (Charles River, UK), HLA-DR4 mice (Model #4149, Taconic, USA), HLA-A2/DR1 (HHDII/DR1, Pasteur Institute), HLA-A2.1+/+HLA-DP4+/+hCD4+/+ (HLA-HHDII/DP4) transgenic mice (EM: 02221, European Mouse Mutant Archive) described in patent WO2013/017545 A1 (EMMA repository, France) were used, aged between 8 and 12 weeks. Peptides were dissolved in PBS to 1 mg/ml and then emulsified (a series of dilutions) with CpG ODN 1826 and MPLA 6 μg/mouse of each (Invivogen, UK). Peptides (25 μg/mouse) were injected subcutaneously at the base of the tail. Mice were immunised at days 1, 7 and 14 for peptide immunisation. Spleens were removed for analysis at day 21 unless stated otherwise.
# (§2) ELISpot assays were performed using murine IFNγ, IL-17 and IL-10 capture and detection reagents according to the manufacturer's instructions (Mabtech, Sweden). In brief, anti-IFNγ, IL-17 and IL-10 specific antibodies were coated onto wells of 96-well Immobilin-P plate. Synthetic peptides (at various concentrations) and 5×10^5 per well splenocytes were added to wells of the plate in quadruplicate Tumour target cells were added where relevant at 5×10^4/well in triplicate and plates incubated for 40 hrs at 37° C. After incubation, captured IFNγ, IL-10 and IL-17 were detected by biotinylated anti-IFNγ, IL-10 and IL-17 antibodies and developed with a streptavidin alkaline phosphatase and chromogenic substrate. Lipopolysaccharide (LPS; 5 μg/ml) was used as a positive control. For MHC blocking studies, anti-CD4 blocking antibody (GK1.5) or anti-CD4 blocking antibody (RPA-T4) for HHDII/DP4 mice which express human CD4 and anti-CD8 blocking antibody (2.43) from Bioxcell were used at 20 μg/ml. Spots were analysed and counted using an automated plate reader (Cellular Technologies Ltd).
# Screening was performed to identify potential homocitrullinated ALDOA epitopes in transgenic HHDII/DP4 and HHDII/DR1 mice. Mice were immunised with pools of human homocitrullinated peptides. […] Each pool was administered as three immunisations containing 20 μg of each peptide and CpG/MPLA as an adjuvant. After 21 days the mice were culled and the immune responses to each peptide within the immunising pool were assessed by ex vivo ELISpot in HHDII/DP4 (FIG. 4b) and HHDII/DR1 mice (FIG. 4d). […] Our predictions therefore identified 3/5 peptides which could induce a T cell response. […] Of the responding peptides ALDOA 74-93 Hcit and 140-157 Hcit peptides are homologous in human and mice therefore these two peptides were selected for further investigation. Minimal IL-10 (FIG. 6b) or IL-17 (FIG. 6c) responses were seen to Aldolase peptides in HHDII/DP4 mice.
# Using this combination of predictions, 5 CyK8 peptides containing homocitrulline were synthesised (Table 4). Screening was performed to identify potential homocitrullinated Cyk8 epitopes in transgenic HHDII/DP4. Mice were immunised with pools of human homocitrullinated peptides. […] Each pool was administered as three immunisations containing 20 μg of each peptide and CpG/MPLA as an adjuvant. After 21 days the mice were culled and the immune responses to each peptide within the immunising pool were assessed by ex vivo ELISpot in HHDII/DP4 (FIG. 10a). […] The responses to CyK8 101-120 Hcit, 112-131 Hcit, 182-201 Hcit, 371-388 Hcit and 381-399 Hcit immunisation were characterised for cross reactivity to the wt peptide sequence. […] Thus a key characteristic of immunogenic peptides is they express homocitrulline. All of these peptides (100%) were immunogenic. Thus a high predicted HLA-DP4 binding affinity (<30), the presence of homocitrulline residues in the core region, the peptide being amphipathic in nature with a predominantely spiral conformational structure upon 3D modelling, and the existence of homology between the mouse and human sequences defines immunogenicity. When this model was applied retrospectively to include the vimentin and ALDOA peptides 8/9 (88%) were correctly predicted. […]
# [1] = tested on: B16HHDII/iDP4 tumour cells; experiment: Tumour therapy, B16HHDII/iDP4 tumour in HHDII/DP4 mice; format: in vivo, mouse; settings: peptide with CpG/MPLA
# Method: For tumour challenge experiments, mice were challenged with B16F1 cells s.c. on the right flank 3 days before primary immunisation (unless stated otherwise) and subsequently immunised as above. Tumour implants were carried out at dose of 2.5×10^4 cells/mouse for B16F1, 2.5×10^4 cells/mouse for B16F1 DR4, 4×10^5 cells/mouse for B16F1 HHDII/DP4, 5×10^5 cells/mouse for B16 HHDII/DR1, 1×10^5 cells/mouse for B16F1 HHDII/inducibleDP4, 5×10^4 cells/mouse for B16F1 inducible DR4. For studies involving depletion antibodies, 250 μg anti-mouse Ly6C antibody (clone Monts, BioXcell) was administered i.p. on days 8, 10, 12, 15, 17 and 19. 400 μg anti-mouse Ly6G antibody (clone 1A8, Biolegend) was administered i.p. on day 8 followed by 250 μg on days 11, 15 and 18. Anti-human CD4 antibody (clone OKT4, BioXcell) or anti-mouse CD8 antibody (clone 2.43, BioXcell) were administered at 500 μg dose on day 4 followed by 300 μg dose on days 8 and 11. Tumour growth was monitored twice weekly and mice were humanely euthanised once tumour reached ≥15 mm in diameter.
# To provide further evidence for the role of CD4 T cell responses in tumour therapy HHDII/DP4 mice were implanted with B16HHDII/iDP4 tumour cells on day 1 and then immunised with peptides and CpG/MPLA on days 4, 8 and 11. Concurrent with peptide immunisation mice were also treated with CD4 or CD8 depleting antibody and tumour growth monitored. […] To show whether cyanate/isocyanic acid can cross cell membranes B16F1 melanoma cell line was cultured in vitro in the presence or absence of potassium cyanate which is in dynamic equilibrium with isocyanic acid. As a positive control lysates were also produced from in vitro cultured B16F1 cells and then treated with or without KCNO.
# HLA-DP4 = target: T1, HLA-DP4 (Homo sapiens, UniProt P04440+P20036); experiment: DP4 competition assay with biotinylated Hep B peptide; settings: inhibition of biotinylated Hep B binding to HLA-DP4; 5 fold excess test peptide, equal amount for unlabelled Hep B
# T1 sequence (P20036 29-260): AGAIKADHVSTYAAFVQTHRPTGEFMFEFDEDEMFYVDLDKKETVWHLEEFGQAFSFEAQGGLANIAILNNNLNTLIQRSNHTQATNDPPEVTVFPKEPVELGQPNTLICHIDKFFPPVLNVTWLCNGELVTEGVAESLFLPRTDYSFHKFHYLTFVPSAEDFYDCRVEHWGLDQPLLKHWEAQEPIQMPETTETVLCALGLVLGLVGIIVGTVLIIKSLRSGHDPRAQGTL
# T1 sequence (P04440 30-258): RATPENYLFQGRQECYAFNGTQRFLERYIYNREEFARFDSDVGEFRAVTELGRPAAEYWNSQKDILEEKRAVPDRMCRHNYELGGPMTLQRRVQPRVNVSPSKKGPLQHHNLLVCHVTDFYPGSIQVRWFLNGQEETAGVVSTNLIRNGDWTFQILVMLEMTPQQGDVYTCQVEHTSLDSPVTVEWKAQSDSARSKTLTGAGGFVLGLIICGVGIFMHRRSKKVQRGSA
# Method: 2×T175 gave 2.5×10^7 B16 HHDII/DP4 (B16F1 β2M H2Ab1 dKO A35 HHDII/DP4 H7/2E9/F9 p14) cells. This was enough for 5 preps using the following protocol with Mem-PER™ Plus Membrane Protein Extraction Kit (thermo-scientific cat #89842).
# 5×10^6 cells were resuspended in the growth media by scraping the cells off the surface of the plate with a cell scraper and then centrifuged at 300 g for 5 mins. The cell pellet was washed with 3 ml of Cell Wash Solution and centrifuged at 300 g for 5 mins. The supernatant was removed and discarded. The cells were resuspended in 1.5 ml of Cell Wash Solution and transfer to a 2 ml centrifuge tube and centrifuged at 300 g for 5 mins. The supernatant was discarded. 0.75 ml of permeabilization buffer was added to the cell pellet and vortexed briefly to obtain a homogeneous cell suspension and incubated for 10 mins at 4° C. with constant mixing. The permeabilized cells were centrifuge for 15 mins at 16,000g before carefully removing the supernatant containing cytosolic proteins and transfering to a new tube. 0.5 ml of solubilization buffer was added to the pellet and resuspend prior to incubating at 4° C. for 30 minutes with constant mixing prior to centrifugation at 16,000g for 15 mins at 4° C. The supernatant containing solubilized membrane and membrane-associated proteins was transfered to a new tube. Aliquots were frozen at −80° C. for future use. 12.5 μl Halt™ Protease and Phosphatase Inhibitor Cocktail, EDTA-free (100X) thermo-scientific (Catalog number 78445) was added prior to freezing.
# High binding plates were coated with streptavidin (Sigma S4762 at 1 mg/ml) 1/500 in PBS and incubated overnight at 4° C. The plates were blocked with 1% BSA in PBS for 4 hrs at room temp and washed 3×PBS/0.5% Tweenx. 450 μl of cell prep lysate (B16F1 B16 HHDII/DP4 H7/2E9/F9) was mixed with 50 μg test peptide (see below) or 10 μg of unlabelled Hep B peptide for 30 mins. 10 μg biotinylated Hep B peptide was added & incubated for 4 hrs at 37° C.:
# Lysate/peptide mix was added to the plates at 100 μl/well and incubated for 4 hrs at room temperature. Plates were washed 3× with PBS/0.5% Tween. 100 μl per well of Leinco anti-Human HLA-DP4 clone B7/21 #H260 1 mg/ml at 1/500 dilution in 1% BSA/PBS was added and incubated for 1 hr at room temperature prior to washing 3× PBS/0.5% Tween. Goat anti-mouse lgG3-HRP at 0.5 mg/ml 1/500 100 μl per well (Invitrogen #M32607) diluted in 1% BSA/PBS) was added for 1 hr at room temperature prior to washing and adding 150 μl of TMB substrate to each well. The reaction was stopped with 50 μl of 2N H2SO4 and plates read plate at 450 nm.
# To ensure that the biotinylation of Hep B had not interfered with its binding, HLA-DP4 was incubated with equal amounts of biotinylated and unlabelled Hep B peptide. Unlabelled peptide competed equally reducing binding by 47% (FIG. 53b).
# The biotinylated HepB peptide was then incubated with a 5 fold excess of the unlabelled homocitrulline peptides. All peptides inhibited the binding of biotinylated Hep B to HLA-DP4 but to varying levels (FIG. 53c-e).
# B16F1 HHDII/DR1 tumours = experiment: Tumour therapy, B16F1 HHDII/DR1 tumour in HHDII/DR1 mice; format: in vivo, mouse; settings: peptide with CpG/MPLA days 4, 11, 18
# Excerpt: To determine if the epitopes that stimulate T cell responses are presented on MHC-II within the tumour environment, our homocitrullinated peptides were checked for tumour therapy in B16 tumour models. Mice were implanted with tumour cells on day 1 and then immunised with peptides and CpG/MPLA on days 4, 11 and 18.
# HHDII/DR1 (FIG. 19a) or DR4 (FIG. 19b) transgenic mice were challenged with B16F1 HHDII/DR1 or B16F1 DR4 tumours respectively prior to immunisation with vimentin 116-135Hcit peptide and tumour growth and survival were monitored.
# HHDII/DR1 mice were implanted with B16HHDII/DR1 tumour cells on day 1 and then immunised with Cyk8 371Hcit, 112hcit or both peptides and CpG/MPLA on days 4, 11 and 18.
# HLA-HHDII/DR1 mice = experiment: Ex vivo IFNγ ELISpot after peptide immunisation, HHDII/DR1 mice; format: in vivo, mouse; settings: 3 immunisations with CpG/MPLA, day 21
# Method: as §1, §2
# Screening was performed to identify potential homocitrullinated vimentin epitopes in mice. Mice were immunised with pools of homocitrullinated peptides. […] Each pool was administered as three immunisations containing 20 μg of each peptide and CpG/MPLA as an adjuvant on day 1, 8 and 15. On day 21 the mice were culled and the immune responses to each peptide within the immunising pool were assessed by ex vivo ELISpot. Given that different mouse strains have different MHC repertoires a number of strains were used for screening. Peptide responses were assessed in transgenic strains expressing human DR4 or HHDII/DR1 in a C57BL/6 background (see methods). […]
# The five selected homocitrullinated Cyk8 peptides were also screened in HHDII/DR1 transgenic mice. […] Response to Cyk8 112Hcit peptide in the HHDII/DR1 mice was lost in the presence of CD8 blocking antibody but less effect of the CD4 blocking antibody was seen (FIG. 12b). […] Responses to homocitrullinated Cyk8 peptides show both CD4 and CD8 mediated responses.
# HLA-DR4 mice = experiment: Ex vivo IFNγ ELISpot after peptide immunisation, HLA-DR4 mice; format: in vivo, mouse; settings: 3 immunisations with CpG/MPLA, day 21
# Method: as §1, §2
# Screening was performed to identify potential homocitrullinated vimentin epitopes in mice. Mice were immunised with pools of homocitrullinated peptides. […] Each pool was administered as three immunisations containing 20 μg of each peptide and CpG/MPLA as an adjuvant on day 1, 8 and 15. On day 21 the mice were culled and the immune responses to each peptide within the immunising pool were assessed by ex vivo ELISpot. Given that different mouse strains have different MHC repertoires a number of strains were used for screening. Peptide responses were assessed in transgenic strains expressing human DR4 or HHDII/DR1 in a C57BL/6 background (see methods).
# [2] = splenocytes after 7 days culture
Substance,cross reactivity of Hcit response to wt peptide (HLA-HHDII/DP4 mice),IFNγ ELISpot response (HLA-HHDII/DP4 mice),IFNγ response in presence of CD8 blocking antibody (HLA-HHDII/DP4 mice; [2]),tumour growth / survival vs control [1],IFNγ response in presence of CD4 blocking antibody (HLA-HHDII/DP4 mice; [2]),% inhibition (HLA-DP4),anti-tumour response / survival vs control (B16F1 HHDII/DR1 tumours),IFNγ ELISpot response (HLA-HHDII/DR1 mice),IFNγ ELISpot response (HLA-DR4 mice)
A-Hcit-FINYV-Hcit-NCFRMTDQEAIQDL [NPM 266-287 Hcit],significantly higher,stimulation of IFNγ responses,lost,Significant prevention of tumour growth,–,–,–,–,–
FSLADAINTEF-Hcit-NTRTNE-Hcit-VELQ [Vimentin 86-108 Hcit],–,stimulation of IFNγ responses,–,Significant prevention of tumour growth,loss of response,–,–,–,–
GSHAGN-Hcit-LAMQEFMILPVGAA [Alpha enolase 156-176 Hcit],–,stimulation of IFNγ responses,–,Significant prevention of tumour growth,lost,–,–,–,–
"NYIDKVRFLEQQNKILLAEL [Vim 116-135 WT, unmodified wild type vimentin 116-135 peptide, reference compound]",–,–,–,–,–,48%,did not show a significant anti-tumour response,failed to induce any responses,failed to induce any responses
